Data on 7 compounds can be found in US9862726B2, “Opioid receptor modulating oxabicyclo[2.2.2]octane morphinans” (PURDUE PHARMA L.P., priority 2013, dated 2018).

Like-named read-outs stand apart in the source and are kept apart here.

One experiment concerns the target κ-opioid receptor (Homo sapiens (Human), UniProt P41145). The experiment is described as follows: κ-opioid receptor functional assay (U-2 OS cells). Type of experiment: biochemical. As for the experimental part: Functional [^35S]GTPγS binding assays were conducted as follows. κ opioid receptor membrane solution was prepared by sequentially adding final concentrations of 0.026 μg/μl κ membrane protein (in-house), 10 μg/mL saponin, 3 μM GDP and 0.20 nM [^35S]GTPγS to binding buffer (100 mM NaCl, 10 mM MgCl2, 20 mM HEPES, pH 7.4) on ice. The prepared membrane solution (190 μl/well) was transferred to 96-shallow well polypropylene plates containing 10 μl of 20× concentrated stock solutions of agonist prepared in DMSO. Plates were incubated for 30 min at a temperature of about 25° C. with shaking. Reactions were terminated by rapid filtration onto 96-well Unifilter GF/B filter plates (Perkin Elmer, Shelton, Conn.) using a 96-well tissue harvester (Packard) and followed by three filtration washes with 200 μl ice-cold binding buffer (10 mM NaH2PO4, 10 mM Na2HPO4, pH 7.4). Filter plates were subsequently dried at 50° C. for 2-3 hours. Fifty μl/well scintillation cocktail (Perkin Elmer, Shelton, Conn.) was added and plates were counted in a Packard Top-Count for 1 min/well.
κ GTP EC50 is the concentration of a compound providing 50% of the maximal response for the compound at a κ receptor.
κ GTP Emax (%) is the maximal effect elicited by a compound relative to the effect elicited by U69,593.
The following TABLE 5 provides results on the activity response of certain Compounds of the Invention at the μ- and κ-opioid receptors determined as described above using U-2 OS cells.

In experiment [1] the target is recombinant human kappa opioid receptor (κ) (Homo sapiens (Human), UniProt P41145). The experiment is described as follows: κ-opioid receptor radioligand dose-displacement binding assay (HEK-293 cells). As to the method:
Membranes from HEK-293 cells, CHO cells or U-2 OS cells expressing the recombinant human kappa opioid receptor (κ) were prepared by lysing cells in ice cold hypotonic buffer (2.5 mM MgCl2, 50 mM HEPES, pH 7.4) (10 mL/10 cm dish) followed by homogenization with a tissue grinder/Teflon pestle. Membranes from a cell line naturally expressing kappa opioid receptor can also be used. Membranes were collected by centrifugation at 30,000×g for 15 min at 4° C. and pellets were resuspended in hypotonic buffer to a final concentration of 1-3 mg/mL. Protein concentrations were determined using the BioRad protein assay reagent with bovine serum albumen as standard. Aliquots of κ receptor membranes were stored at −80° C.
Radioligand dose displacement assays used 0.4 nM [^3H]-U69,593 (GE Healthcare, Piscataway, N.J.; 40 Ci/mmole) with 15 μg membrane protein (recombinant κ opioid receptor expressed in HEK 293 cells; in-house prep) in a final volume of 200 μl binding buffer (5% DMSO, 50 mM Trizma base, pH 7.4). Non-specific binding was determined in the presence of 10 μM unlabeled naloxone or U69,593. All reactions were performed in 96-well polypropylene plates for 1 hour at a temperature of about 25° C. Binding reactions were terminated by rapid filtration onto 96-well Unifilter GF/C filter plates (Perkin Elmer, Shelton, Conn.) presoaked in 0.5% polyethylenimine (Sigma). Harvesting was performed using a 96-well tissue harvester (Perkin Elmer, Shelton, Conn.) followed by five filtration washes with 200 μl ice-cold binding buffer. Filter plates were subsequently dried at 50° C. for 1-2 hours. Fifty μl/well scintillation cocktail (Perkin Elmer, Shelton, Conn.) was added and plates were counted in a Packard Top-Count for 1 min/well.
(§1) In TABLE 3, binding affinity of certain Compounds of the Invention to the μ- and κ-opioid receptors was determined as described above using HEK-293 cells.

In experiment [2] the target is T1, μ-opioid receptor (Homo sapiens (Human), UniProt P35372). Briefly: μ-opioid receptor functional assay (U-2 OS cells). Type of experiment: biochemical. As to the method:
(§2) [^35S]GTPγS functional assays were conducted using freshly thawed μ-receptor membranes prepared in-house from a cell line expressing recombinant μ opioid receptor in a HEK-293, CHO or U-2 OS cell background, or purchased from a commercial source (Perkin Elmer, Shelton, Conn.; or DiscovRx, Fremont, Calif.). Assay reactions were prepared by sequentially adding the following reagents to binding buffer (100 mM NaCl, 10 mM MgCl2, 20 mM HEPES, pH 7.4) on ice (final concentrations indicated): membrane protein (0.026 mg/mL), saponin ([…]), GDP ([…]) and [^35S]GTPγS (0.20 nM; Perkin Elmer, Shelton, Conn.). The prepared membrane solution (190 μl/well) was transferred to 96-shallow well polypropylene plates containing 10 μl of 20× concentrated stock solutions of the agonist [D-Ala^2, N-methyl-Phe^4 Gly-ol^5]-enkephalin (DAMGO) prepared in dimethyl sulfoxide (DMSO). Plates were incubated for 30 min at about 25° C. with shaking. Reactions were terminated by rapid filtration onto 96-well Unifilter GF/B filter plates (Perkin Elmer, Shelton, Conn.) using a 96-well tissue harvester (Perkin Elmer, Shelton, Conn.) followed by three filtration washes with 200 μl of ice-cold wash buffer (10 mM NaH2PO4, 10 mM Na2HPO4, pH 7.4). Filter plates were subsequently dried at 50° C. for 2-3 hours. BetaScint scintillation cocktail (Perkin Elmer, Shelton, Conn.) was added (50 μl/well) and plates were counted using a Packard Top-Count for 1 min/well. Data were analyzed using the sigmoidal dose-response curve fitting functions in GraphPad PRISM v. 3.0, or an in-house function for non-linear, sigmoidal dose-response curve-fitting. [^35S]GTPγS functional assays can also be conducted using freshly thawed μ-receptor membranes prepared from a cell line expressing recombinant μ opioid receptor in a CHO-K1 cell background.
(§3) μ GTP EC50 is the concentration of a compound providing 50% of the maximal response for the compound at a μ-opioid receptor.
(§4) μ GTP Emax (%) is the maximal effect elicited by a compound relative to the effect elicited by DAMGO, a standard μ agonist.

Experiment [3] concerns the target T1, μ-opioid receptor. The experiment is described as follows: μ-opioid receptor radioligand dose-displacement binding assay (HEK-293 cells). As to the method: Radioligand dose-displacement binding assays for μ-opioid receptors used 0.3 nM [^3H]-diprenorphine (Perkin Elmer, Shelton, Conn.), with […] membrane protein/well in a final volume of 500 μl binding buffer (10 mM MgCl2, 1 mM EDTA, 5% DMSO, 50 mM HEPES, pH 7.4). Reactions were carried out in the absence or presence of increasing concentrations of unlabeled naloxone. All reactions were conducted in 96-deep well polypropylene plates for 2 hours at room temperature. Binding reactions were terminated by rapid filtration onto 96-well Unifilter GF/C filter plates (Perkin Elmer, Shelton, Conn.), presoaked in 0.5% polyethylenimine using a 96-well tissue harvester (Perkin Elmer, Shelton, Conn.) followed by performing three filtration washes with 500 μl of ice-cold binding buffer. Filter plates were subsequently dried at 50° C. for 2-3 hours. BetaScint scintillation cocktail (Perkin Elmer, Shelton, Conn.) was added (50 μl/well), and plates were counted using a Packard Top-Count for 1 min/well. The data were analyzed using the one-site competition curve fitting functions in GraphPad PRISM™ v. 3.0 or higher (San Diego, Calif.), or an in-house function for one-site competition curve-fitting.
as §1

Experiment [4] deals with T1, μ-opioid receptor. The experiment is described as follows: μ-opioid receptor [35S]GTPγS functional assay (HEK-293 cells). Type of experiment: biochemical. As to the method: as §2, §3, §4
In TABLE 4, activity response of certain Compounds of the Invention to the μ- and κ-opioid receptors was determined as described above for functional assays using HEK-293 cells.

[5] abbreviates: U-2 OS cells, read-out: Opioid Receptor κ EC50.
Where [6] appears, read: U-2 OS cells, relative to U69,593.
Where [7] appears, read: U-2 OS cells, read-out: Opioid Receptor μ EC50.
The mark [8] stands for this setting: U-2 OS cells, relative to DAMGO.
The mark [9] stands for this setting: HEK-293 cells, relative to DAMGO.

In general, EC50 refers to the concentration giving half of the maximal effect. One may read the Emax as the size of the effect at its maximum, as opposed to the concentration needed. One may read the Ki as the equilibrium dissociation constant of an inhibitor or competing ligand from its target.

`COc1ccc2c(c1)[C@]13CCN(CC4CC4)[C@H](C2)[C@]12CC[C@@](N(Cc1ccccc1)Cc1ccccc1)(CO2)C3` [Compound 7, (4bR,6S,8aS,9R)—N,N-dibenzyl-11-(cyclopropylmethyl)-3-methoxy-5,6,7,8,9,10-hexahydro-9,4b-(epiminoethano)-8a,6-(epoxymethano)phenanthren-6-amine]: the EC50 was 2.99 ± 0.33 nM on κ-opioid receptor (setting [5]); 26.4 ± 3.96 nM at μ-opioid receptor [2] (setting [7]); > 20 µM on μ-opioid receptor [4] (HEK-293 cells, bound given in μM, read-out: Opioid Receptor μ EC50). For the same compound, the values for the Emax on κ-opioid receptor (setting [6]), at μ-opioid receptor [2] (setting [8]) and at μ-opioid receptor [4] (setting [9]) were 112 ± 3.93%, 84.3 ± 2.85% and 5.67 ± 1.86%, respectively. Besides, the Ki in experiment [1] was found to be 5.35 ± 0.91 nM; on μ-opioid receptor [3] it was 64.3 ± 21.6 nM.
As to `COc1ccc2c(c1)[C@]13CCN(CC4CC4)[C@H](C2)[C@]12CC[C@@](NS(=O)(=O)c1ccc(Cl)cc1)(CO2)C3` [Compound 24, 4-Chloro-N-((4bR,6S,8aS,9R)-11-(cyclopropylmethyl)-3-methoxy-5,6,7,8,9,10-hexahydro-9,4b-(epiminoethano)-8a,6-(epoxymethano)phenanthren-6-yl)-benzenesulfonamide], the EC50 at κ-opioid receptor was 0.11 ± 0.011 nM; at μ-opioid receptor [2], 0.25 ± 0.014 nM; at μ-opioid receptor [4] it was > 20 µM. In addition, the Emax worked out at 114 ± 2.73% on κ-opioid receptor (setting [6]), 71.7 ± 0.67% on μ-opioid receptor [2] (setting [8]) and 6% at μ-opioid receptor [4] (setting [9]). Moreover, the results for the Ki (in experiment [1]; at μ-opioid receptor [3]) were 0.057 ± 0.01 nM and 0.29 ± 0.043 nM, respectively.
On to `COc1ccc2c(c1)[C@]13CCN(CC4CC4)[C@H](C2)[C@]12CC[C@@](NC(=O)c1ccc(Cl)cc1)(CO2)C3` [Compound 20, N-((4bR,6S,8aS,9R)-11-(cyclopropylmethyl)-3-methoxy-5,6,7,8,9,10-hexahydro-9,4b-(epiminoethano)-8a,6-(epoxymethano)phenanthren-6-yl)-4-chlorobenzamide], for which the EC50 at κ-opioid receptor amounted to 3.24 ± 0.082 nM; on μ-opioid receptor [2], 3.23 ± 0.13 nM; at μ-opioid receptor [4], 0.0524 ± 0.0117 µM. Besides, the values for the Emax on κ-opioid receptor (setting [6]), at μ-opioid receptor [2] (setting [8]) and on μ-opioid receptor [4] (setting [9]) were 115 ± 2.85%, 102 ± 2.85% and 20.2 ± 0.48%, respectively. Further, the figures for the Ki (in experiment [1]; at μ-opioid receptor [3]) were 0.6 ± 0.098 nM and 24.7 ± 3.5 nM, respectively.
For “1-Chlorophenyl-3-((4bR,6S,8aS,9R)-11-(cyclopropylmethyl)-3-methoxy-5,6,7,8,9,10-hexahydro-9,4b-(epiminoethano)-8a,6-(epoxymethano)phenanthren-6-yl)urea [Compound 25]”, the EC50 on κ-opioid receptor (setting [5]) was determined as 16.1 ± 0.82 nM; on μ-opioid receptor [2] (setting [7]), 4.33 ± 0.15 nM; on μ-opioid receptor [4] (HEK-293 cells, read-out: Opioid Receptor μ EC50), 0.0866 ± 0.0115 µM. The “Opioid Receptor κ Emax (%)” value on κ-opioid receptor (setting [6]) was 121.3 ± 4.67%. The Ki in experiment [1] stood at 2.56 ± 0.36 nM; on μ-opioid receptor [3], 3.51 ± 0.45 nM. The “Opioid Receptor μ Emax (%)” value stood at 99.7 ± 0.88% on μ-opioid receptor [2] (setting [8]) and 18.3 ± 0.88% at μ-opioid receptor [4] (setting [9]).
For `COc1ccc2c(c1)[C@]13CCN(CC4CC4)[C@H](C2)[C@]12CC[C@@](N)(CO2)C3` [Compound 8, (4bR,6S,8aS,9R)-11-(cyclopropylmethyl)-3-methoxy-5,6,7,8,9,10-hexahydro-9,4b-(epiminoethano)-8a,6-(epoxymethano)phenanthren-6-amine], the EC50 at κ-opioid receptor came out at 34.5 ± 3.61 nM; on μ-opioid receptor [2], 88.8 ± 20.6 nM; at μ-opioid receptor [4], 1.11 ± 0.242 µM. The Emax turned out to be 112 ± 1.33% on κ-opioid receptor (setting [6]), 106 ± 2.96% on μ-opioid receptor [2] (setting [8]) and 27.8 ± 2.17% at μ-opioid receptor [4] (setting [9]). The Ki in experiment [1] came out at 4.72 ± 1.07 nM; at μ-opioid receptor [3], 773 ± 161 nM.
For the compound `COc1ccc2c(c1)[C@]13CCN(CC4CC4)[C@H](C2)[C@]12CC[C@@](NC(=O)C1CC1)(CO2)C3` [Compound 22, N-((4bR,6S,8aS,9R)-11-(cyclopropylmethyl)-3-methoxy-5,6,7,8,9,10-hexahydro-9,4b-(epiminoethano)-8a,6-(epoxymethano)phenanthren-6-yl)cyclopropanecarboxamide], the EC50 on κ-opioid receptor worked out at 0.9 ± 0.096 nM; on μ-opioid receptor [2] it was 71.2 ± 10.8 nM; on μ-opioid receptor [4] it was 0.939 ± 0.394 µM. Moreover, the Emax on κ-opioid receptor (setting [6]) was 111 ± 2.6%; at μ-opioid receptor [2] (setting [8]), 90.7 ± 2.73%; at μ-opioid receptor [4] (setting [9]), 18 ± 0.41%. Also, the results for the Ki (in experiment [1]; on μ-opioid receptor [3]) were 0.3 ± 0.055 nM and 126 ± 20.7 nM, respectively.
For the compound `CC(C)(C)C(=O)N[C@]12CC[C@@]3(OC1)[C@H]1Cc4ccc(O)cc4[C@@]3(CCN1CC1CC1)C2` [Compound 26, N-((4bR,6S,8aS,9R)-11-(cyclopropylmethyl)-3-hydroxy-5,6,7,8,9,10-hexahydro-9,4b-(epiminoethano)-8a,6-(epoxymethano)phenanthren-6-yl)pivalamide], the EC50 was 0.031 nM at κ-opioid receptor, 0.28 ± 0.01 nM on μ-opioid receptor [2] and > 20 µM on μ-opioid receptor [4]. The maximum response (Emax) on κ-opioid receptor (setting [6]) was 91.7 ± 2.73%; on μ-opioid receptor [2] (setting [8]), 89 ± 3.06%; on μ-opioid receptor [4] (setting [9]) it was 4 ± 1.53%. Besides, the Ki in experiment [1] amounted to 0.059 ± 0.01 nM; on μ-opioid receptor [3] it was 0.056 ± 0.01 nM.
